According to ChEMBL document CHEMBL1147701, “Novel 4-anilinoquinazolines with C-6 carbon-linked side chains: synthesis and structure-activity relationship of a series of potent, orally active, EGF receptor tyrosine kinase inhibitors” (Bioorg Med Chem Lett, 2006):
≈ marks a conversion by molar mass, not a printed value.

Assays:
[1] = molecular target: T1, Serine/threonine-protein kinase Sgk1 (Homo sapiens, UniProt O00141); assay: Inhibition of SGK
T1 sequence (O00141 whole entry): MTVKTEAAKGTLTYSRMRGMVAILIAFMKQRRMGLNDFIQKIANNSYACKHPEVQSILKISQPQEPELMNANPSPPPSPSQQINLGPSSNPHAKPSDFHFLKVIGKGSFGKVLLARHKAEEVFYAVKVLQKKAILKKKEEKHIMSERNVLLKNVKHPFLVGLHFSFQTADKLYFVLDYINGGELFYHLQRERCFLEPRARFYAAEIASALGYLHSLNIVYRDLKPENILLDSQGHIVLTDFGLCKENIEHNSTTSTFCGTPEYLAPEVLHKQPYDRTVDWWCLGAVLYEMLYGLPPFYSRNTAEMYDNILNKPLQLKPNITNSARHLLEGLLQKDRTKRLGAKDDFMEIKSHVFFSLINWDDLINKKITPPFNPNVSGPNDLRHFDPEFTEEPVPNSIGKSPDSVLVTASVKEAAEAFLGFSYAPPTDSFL

[2] = molecular target: Tyrosine-protein kinase Lck (Homo sapiens, UniProt P06239)
[3] = Volume of distribution in rat; format: ADME, organism-based; conditions: in vivo, read-out: Vdss
[4] = molecular target: Vascular endothelial growth factor receptor 2 (Homo sapiens, UniProt P35968)
[5] = Dissociation constant, pKa of the compound; format: physicochemical
[6] = molecular target: T2, Serine/threonine-protein kinase Chk1 (Homo sapiens, UniProt O14757); assay: Inhibition of CHK1
T2 sequence (O14757 whole entry): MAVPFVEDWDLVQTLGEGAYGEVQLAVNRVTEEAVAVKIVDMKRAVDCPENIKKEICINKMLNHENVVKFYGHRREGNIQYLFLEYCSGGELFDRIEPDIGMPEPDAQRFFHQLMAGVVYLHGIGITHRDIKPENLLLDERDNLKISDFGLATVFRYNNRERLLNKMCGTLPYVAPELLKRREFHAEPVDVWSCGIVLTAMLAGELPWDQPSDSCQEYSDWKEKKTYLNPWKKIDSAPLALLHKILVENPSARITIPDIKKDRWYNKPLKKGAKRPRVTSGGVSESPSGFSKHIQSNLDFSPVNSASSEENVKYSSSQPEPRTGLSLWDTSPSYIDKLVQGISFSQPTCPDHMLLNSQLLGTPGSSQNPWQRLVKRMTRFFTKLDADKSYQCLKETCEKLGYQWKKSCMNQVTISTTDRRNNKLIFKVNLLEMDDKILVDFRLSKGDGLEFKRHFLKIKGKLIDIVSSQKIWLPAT

[7] = molecular target: AMP-activated protein kinase, AMPK; assay: Inhibition of AMPK; format: protein-complex assay
[8] = molecular target: MAP kinase p38 (Homo sapiens, UniProt O15264+Q15759+Q16539+P53778)
[9] = molecular target: c-Jun N-terminal kinase, JNK (Homo sapiens, UniProt P45983+P53779+P45984); assay: Inhibition of JNK; format: protein assay
[10] = molecular target: Glycogen synthase kinase-3 beta (Homo sapiens, UniProt P49841); assay: Inhibition of GSK3-beta
[11] = Bioavailability in rat; format: ADME, organism-based; conditions: in vivo
[12] = Clearance in rat; format: ADME, organism-based; conditions: in vivo
[13] = molecular target: cAMP-dependent protein kinase (PKA) (Homo sapiens, UniProt P22694+P17612+P22612); assay: Inhibition of PKA; format: protein assay
[14] = molecular target: Proto-oncogene tyrosine-protein kinase Src (Homo sapiens, UniProt P12931); assay: Inhibition of Src
[15] = molecular target: Rho-associated protein kinase 2 (Homo sapiens, UniProt O75116); assay: Inhibition of ROCK2
[16] = Inhibition of CDK
[17] = molecular target: Mitogen-activated protein kinase 1 (Homo sapiens, UniProt P28482); assay: Inhibition of MAPK
[18] = Bioavailability in dog at 2 mg/kg, po and 1 mg/kg, iv; format: ADME, organism-based, Canis lupus familiaris; conditions: in vivo
[19] = Inhibition of P450; format: ADME
[20] = Percent of unbound drug in rat plasma; format: ADME, organism-based
[21] = Distribution coefficient, logD of the compound; format: physicochemical; conditions: octanol/water
[22] = Solubility in phosphate buffer at pH 7.4; format: physicochemical
[23] = Clearance in dog at 2 mg/kg, po and 1 mg/kg, iv; format: ADME, organism-based, Canis lupus familiaris; conditions: in vivo
[24] = test system: LoVo; assay: Antitumor activity against human LoVo cell line xenografted in athymic mouse at 25 mg/kg/day after 18 days; format: functional; conditions: 432 h
[25] = Volume of distribution in dog at 2 mg/kg, po and 1 mg/kg, iv; format: ADME, organism-based, Canis lupus familiaris; conditions: in vivo, read-out: Vdss
[26] = Bioavailability in rat at 5 mg/kg, po and 2 mg/kg, iv; format: ADME, organism-based; conditions: in vivo
[27] = Half life in rat at 5 mg/kg, po and 2 mg/kg, iv; format: ADME, organism-based; conditions: in vivo
[28] = Half life in dog at 2 mg/kg, po and 1 mg/kg, iv; format: ADME, organism-based, Canis lupus familiaris; conditions: in vivo
[29] = Apparent permeability from apical to basolateral side of the Caco-2 cell; format: ADME, cell-based; conditions: human, read-out: permeability
[30] = Percent of unbound drug in dog plasma; format: ADME, organism-based, Canis lupus familiaris
[31] = Volume of distribution in rat at 5 mg/kg, po and 2 mg/kg, iv; format: ADME, organism-based; conditions: in vivo, read-out: Vdss
[32] = Clearance in rat at 5 mg/kg, po and 2 mg/kg, iv; format: ADME, organism-based; conditions: in vivo
[33] = Percent of unbound drug in human plasma; format: ADME, organism-based
[34] = test system: LoVo; assay: Antitumor activity against human LoVo cell line xenografted in athymic mouse at 50 mg/kg/day after 13 days; format: functional; conditions: 312 h

Tyrosine-protein kinase Lck, sequence (P06239 whole entry): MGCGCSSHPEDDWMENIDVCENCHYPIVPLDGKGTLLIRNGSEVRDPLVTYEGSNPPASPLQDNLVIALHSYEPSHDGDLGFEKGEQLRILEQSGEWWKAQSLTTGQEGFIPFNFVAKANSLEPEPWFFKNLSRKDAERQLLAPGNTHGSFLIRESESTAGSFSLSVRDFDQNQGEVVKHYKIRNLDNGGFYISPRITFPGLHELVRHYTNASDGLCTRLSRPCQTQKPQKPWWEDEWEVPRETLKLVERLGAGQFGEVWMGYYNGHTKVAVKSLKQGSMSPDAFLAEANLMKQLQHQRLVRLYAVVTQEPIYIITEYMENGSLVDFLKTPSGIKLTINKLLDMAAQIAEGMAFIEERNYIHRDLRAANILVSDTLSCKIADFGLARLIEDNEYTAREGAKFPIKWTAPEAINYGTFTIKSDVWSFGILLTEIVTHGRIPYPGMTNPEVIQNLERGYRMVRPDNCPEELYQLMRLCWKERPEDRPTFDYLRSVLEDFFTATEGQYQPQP
Mitogen-activated protein kinase 1, sequence (P28482 whole entry): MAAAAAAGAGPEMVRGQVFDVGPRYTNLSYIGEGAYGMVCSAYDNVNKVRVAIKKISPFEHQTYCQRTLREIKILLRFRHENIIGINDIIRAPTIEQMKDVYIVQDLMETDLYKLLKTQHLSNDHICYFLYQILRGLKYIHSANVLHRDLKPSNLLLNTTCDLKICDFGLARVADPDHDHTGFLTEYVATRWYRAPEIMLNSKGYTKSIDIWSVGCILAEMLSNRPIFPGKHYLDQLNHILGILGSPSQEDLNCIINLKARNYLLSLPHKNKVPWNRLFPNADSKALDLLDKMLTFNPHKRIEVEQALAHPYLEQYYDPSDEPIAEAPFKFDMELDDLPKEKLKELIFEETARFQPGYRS
Vascular endothelial growth factor receptor 2, sequence (P35968 whole entry): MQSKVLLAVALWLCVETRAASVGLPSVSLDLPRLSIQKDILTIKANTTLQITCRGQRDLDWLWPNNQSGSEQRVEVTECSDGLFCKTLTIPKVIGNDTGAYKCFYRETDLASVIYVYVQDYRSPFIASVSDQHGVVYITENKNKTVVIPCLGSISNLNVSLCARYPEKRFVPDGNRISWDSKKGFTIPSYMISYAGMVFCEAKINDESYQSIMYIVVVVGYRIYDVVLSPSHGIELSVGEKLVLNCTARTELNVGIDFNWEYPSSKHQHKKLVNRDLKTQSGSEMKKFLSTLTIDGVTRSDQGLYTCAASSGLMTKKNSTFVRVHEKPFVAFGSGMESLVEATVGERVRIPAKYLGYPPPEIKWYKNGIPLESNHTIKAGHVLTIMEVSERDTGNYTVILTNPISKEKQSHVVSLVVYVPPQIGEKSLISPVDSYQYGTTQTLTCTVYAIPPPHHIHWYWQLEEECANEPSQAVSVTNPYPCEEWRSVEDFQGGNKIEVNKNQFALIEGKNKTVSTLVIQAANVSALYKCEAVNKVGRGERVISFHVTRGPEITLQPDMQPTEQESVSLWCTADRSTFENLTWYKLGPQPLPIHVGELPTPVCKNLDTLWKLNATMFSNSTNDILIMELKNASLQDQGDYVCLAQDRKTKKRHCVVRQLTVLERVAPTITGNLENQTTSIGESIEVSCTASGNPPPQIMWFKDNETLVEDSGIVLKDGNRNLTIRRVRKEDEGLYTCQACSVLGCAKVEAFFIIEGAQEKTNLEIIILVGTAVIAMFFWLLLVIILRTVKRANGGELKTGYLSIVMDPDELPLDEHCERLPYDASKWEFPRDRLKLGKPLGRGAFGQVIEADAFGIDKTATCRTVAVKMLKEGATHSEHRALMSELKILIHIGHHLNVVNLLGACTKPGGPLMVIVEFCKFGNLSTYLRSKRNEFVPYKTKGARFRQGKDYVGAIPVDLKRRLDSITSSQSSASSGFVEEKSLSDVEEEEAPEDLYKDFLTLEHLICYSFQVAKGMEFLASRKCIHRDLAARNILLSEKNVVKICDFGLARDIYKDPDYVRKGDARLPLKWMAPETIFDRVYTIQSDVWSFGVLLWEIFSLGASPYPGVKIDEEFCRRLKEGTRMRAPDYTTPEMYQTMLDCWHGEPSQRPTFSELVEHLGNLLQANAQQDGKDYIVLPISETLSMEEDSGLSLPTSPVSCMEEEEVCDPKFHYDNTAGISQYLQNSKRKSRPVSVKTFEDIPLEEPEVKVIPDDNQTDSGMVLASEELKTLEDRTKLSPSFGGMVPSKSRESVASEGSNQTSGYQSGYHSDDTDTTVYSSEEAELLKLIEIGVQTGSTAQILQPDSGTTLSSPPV
Proto-oncogene tyrosine-protein kinase Src, sequence (P12931 2-536 limits assumed): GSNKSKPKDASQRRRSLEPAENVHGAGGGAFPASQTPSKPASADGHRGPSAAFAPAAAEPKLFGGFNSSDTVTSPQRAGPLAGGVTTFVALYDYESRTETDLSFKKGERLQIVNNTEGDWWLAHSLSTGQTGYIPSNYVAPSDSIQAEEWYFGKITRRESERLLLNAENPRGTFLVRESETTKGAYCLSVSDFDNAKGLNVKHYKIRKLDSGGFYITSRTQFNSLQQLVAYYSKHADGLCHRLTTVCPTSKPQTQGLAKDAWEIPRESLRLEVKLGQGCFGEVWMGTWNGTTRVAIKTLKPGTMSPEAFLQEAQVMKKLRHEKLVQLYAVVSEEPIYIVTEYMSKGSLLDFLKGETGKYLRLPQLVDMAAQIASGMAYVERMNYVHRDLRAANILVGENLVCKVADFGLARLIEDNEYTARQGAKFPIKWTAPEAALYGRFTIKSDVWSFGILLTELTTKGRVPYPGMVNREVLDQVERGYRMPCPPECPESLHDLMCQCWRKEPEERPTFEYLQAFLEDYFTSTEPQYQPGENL
Glycogen synthase kinase-3 beta, sequence (P49841 whole entry): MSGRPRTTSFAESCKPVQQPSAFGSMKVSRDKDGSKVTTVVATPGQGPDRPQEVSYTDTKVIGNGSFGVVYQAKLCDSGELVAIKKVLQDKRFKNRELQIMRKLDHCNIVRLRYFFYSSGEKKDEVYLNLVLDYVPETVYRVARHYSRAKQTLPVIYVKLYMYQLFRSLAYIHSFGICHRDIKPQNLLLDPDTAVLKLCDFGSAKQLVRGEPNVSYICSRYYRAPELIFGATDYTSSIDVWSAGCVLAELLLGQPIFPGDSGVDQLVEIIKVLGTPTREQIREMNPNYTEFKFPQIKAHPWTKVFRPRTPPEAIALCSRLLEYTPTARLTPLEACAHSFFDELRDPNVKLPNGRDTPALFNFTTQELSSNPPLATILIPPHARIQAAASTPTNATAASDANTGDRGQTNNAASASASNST
Rho-associated protein kinase 2, sequence (O75116 whole entry): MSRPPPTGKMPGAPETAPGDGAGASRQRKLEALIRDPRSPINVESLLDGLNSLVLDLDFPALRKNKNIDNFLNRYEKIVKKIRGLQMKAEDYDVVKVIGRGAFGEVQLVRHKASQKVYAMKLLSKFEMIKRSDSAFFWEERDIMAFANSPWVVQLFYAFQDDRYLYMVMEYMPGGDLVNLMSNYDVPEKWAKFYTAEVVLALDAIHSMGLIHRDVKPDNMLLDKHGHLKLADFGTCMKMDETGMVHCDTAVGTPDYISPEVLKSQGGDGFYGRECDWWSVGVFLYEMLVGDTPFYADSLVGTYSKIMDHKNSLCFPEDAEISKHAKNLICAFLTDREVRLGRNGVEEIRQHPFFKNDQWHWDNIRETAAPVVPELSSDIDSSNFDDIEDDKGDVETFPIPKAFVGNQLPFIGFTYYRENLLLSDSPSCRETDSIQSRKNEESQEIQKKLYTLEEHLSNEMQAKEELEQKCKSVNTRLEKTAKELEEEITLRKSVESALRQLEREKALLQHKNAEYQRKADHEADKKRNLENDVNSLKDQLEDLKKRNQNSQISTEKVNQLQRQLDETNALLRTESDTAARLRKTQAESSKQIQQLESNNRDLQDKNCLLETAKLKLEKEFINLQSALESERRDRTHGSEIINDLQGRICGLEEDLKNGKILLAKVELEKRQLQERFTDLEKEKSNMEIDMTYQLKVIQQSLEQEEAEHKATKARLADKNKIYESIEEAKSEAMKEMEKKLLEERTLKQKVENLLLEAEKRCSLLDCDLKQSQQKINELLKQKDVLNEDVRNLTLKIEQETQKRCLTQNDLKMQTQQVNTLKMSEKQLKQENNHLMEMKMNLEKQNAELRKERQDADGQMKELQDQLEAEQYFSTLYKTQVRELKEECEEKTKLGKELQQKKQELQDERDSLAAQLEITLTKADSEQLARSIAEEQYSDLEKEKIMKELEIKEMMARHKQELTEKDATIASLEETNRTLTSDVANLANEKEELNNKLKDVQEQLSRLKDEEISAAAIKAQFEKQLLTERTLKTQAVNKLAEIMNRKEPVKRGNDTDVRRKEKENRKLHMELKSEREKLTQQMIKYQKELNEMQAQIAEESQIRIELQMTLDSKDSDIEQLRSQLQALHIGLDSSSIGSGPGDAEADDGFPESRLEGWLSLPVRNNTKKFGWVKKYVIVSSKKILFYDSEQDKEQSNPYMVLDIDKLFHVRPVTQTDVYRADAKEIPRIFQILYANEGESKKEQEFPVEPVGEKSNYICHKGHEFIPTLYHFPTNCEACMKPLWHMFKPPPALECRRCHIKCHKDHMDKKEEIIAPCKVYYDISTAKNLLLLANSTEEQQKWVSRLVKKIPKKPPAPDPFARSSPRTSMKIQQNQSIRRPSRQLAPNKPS

SMILES	IC50 [1] [µM]	IC50 [2] [µM]	Vd [3] [L/kg]	IC50 [4] [µM]	pKa [5]	IC50 [6] [µM]	IC50 [7] [µM]	IC50 [8] [µM]	IC50 [9] [µM]	IC50 [10] [µM]	bioavailability [11] [%]	clearance [12] [mL/min/kg]	IC50 [13] [µM]	IC50 [14] [µM]	IC50 [15] [µM]	IC50 [16] [µM]	IC50 [17] [µM]	IC50 [19] [µM]	fraction unbound [20]	solubility [22] [µM]	other results
COc1cc2ncnc(Nc3cccc(Cl)c3F)c2cc1CN(C)C1(C(N)=O)CCN(C)CC1	> 10	> 10	7.5	> 10	8.3	> 10	> 10	> 10	> 10	> 10	< 50	55	> 10	> 10	> 10	> 10	> 10				
COc1cc2ncnc(Nc3cccc(Cl)c3F)c2cc1CN1CCC[C@H]1C(N)=O	> 10	> 10		> 10		> 10	> 10		> 10	> 10			> 10	> 10	> 10	> 10	> 10	> 10	0.037	260 (≈ 112 µg/mL)	bioavailability [18]: 88%; logD [21]: 3.6; clearance [23]: 5 mL/min/kg; inhibition in vivo at 25 mg/kg/day [24]: 43%; Vd [25]: 0.4 L/kg; bioavailability [26]: 111%; half-life [27]: 6.6 h; half-life [28]: 0.7 h; Papp A→B [29]: > 13 ×10⁻⁶ cm/s; fraction unbound [30]: 0.01; Vd [31]: 0.7 L/kg; clearance [32]: 3 mL/min/kg; fraction unbound [33]: 0.05
COc1cc2ncnc(Nc3cccc(Cl)c3F)c2cc1CN(C)[C@@H](C)C(N)=O	> 10	> 10		> 10		> 10	> 10	> 10	> 10	> 10			> 10	> 10	> 10	> 10	> 10	> 10	0.065	40 (≈ 16.7 µg/mL)	bioavailability [18]: 63%; inhibition in vivo at 50 mg/kg/day [34]: 60%; logD [21]: 3.4; clearance [23]: 14 mL/min/kg; Vd [25]: 0.4 L/kg; bioavailability [26]: 75%; half-life [27]: 4.8 h; half-life [28]: 0.4 h; Papp A→B [29]: > 13 ×10⁻⁶ cm/s; fraction unbound [30]: 0.01; Vd [31]: 0.8 L/kg; clearance [32]: 12 mL/min/kg; fraction unbound [33]: 0.05
COc1cc2ncnc(Nc3cccc(Cl)c3F)c2cc1CN(C)C1(C(N)=O)CN(C)C1	> 10	> 10	9.4	> 10	7.9	> 10	> 10	> 10	> 10	> 10	< 50	55	> 10	> 10	> 10	> 10	> 10				
COCCN1CC(C(N)=O)(N(C)Cc2cc3c(Nc4cccc(Cl)c4F)ncnc3cc2OC)C1	> 10	> 10	4.2	> 10	7.1	> 10	> 10	> 10	> 10	> 10	< 50	35	> 10	> 10	> 10	> 10	> 10				
COc1cc2ncnc(Nc3cccc(Cl)c3F)c2cc1CN(C(C)C)[C@@H](C)C(N)=O	> 10			> 10		> 10	> 10		> 10	> 10			> 10	> 10	> 10		> 10			1 (≈ 0.446 µg/mL)	
COc1cc2ncnc(Nc3cccc(Cl)c3F)c2cc1CN(C)[C@H](C)C(N)=O	> 10	> 10		> 10	6.8	> 10	> 10	> 10	> 10	> 10			> 10	> 10	> 10	> 10	> 10	> 10	0.06	40 (≈ 16.7 µg/mL)	logD [21]: 3.4; inhibition in vivo at 25 mg/kg/day [24]: 37%; bioavailability [26]: 58%; half-life [27]: 4.3 h; Papp A→B [29]: > 13 ×10⁻⁶ cm/s; fraction unbound [30]: 0.01; Vd [31]: 0.6 L/kg; clearance [32]: 6 mL/min/kg; fraction unbound [33]: 0.05
COc1cc2ncnc(Nc3cccc(Cl)c3F)c2cc1CN1CCC[C@H]1CC(N)=O	> 10	> 10		> 10		> 10	> 10	> 10	> 10	> 10			> 10	> 10	> 10	> 10	> 10				
COc1cc2ncnc(Nc3cccc(Cl)c3F)c2cc1CN(C)C1(C(N)=O)CCN(C(C)C)CC1	> 10		4.9	> 10	9.1	> 10	> 10		> 10	> 10	< 50	114		> 10	> 10		> 10				
COc1cc2ncnc(Nc3cccc(Cl)c3F)c2cc1CN(C)C1(C(N)=O)CN(C(C)C)C1	> 10	> 10	7.2	> 10	7.8	> 10	> 10		> 10	> 10	< 50	61	> 10	> 10	> 10		> 10				
